Assay results as given in the supplement of paper PMC10307832.

How the values were obtained:
Test in all cases: relative viability (nuclei count vs DMSO), 5 days (fraction); higher = more cells survive
VE-821 + Tozasertib = compound: CS(=O)(=O)c1ccc(-c2cnc(N)c(C(=O)Nc3ccccc3)n2)cc1 [VE-821] + Cc1cc(Nc2cc(N3CCN(C)CC3)nc(Sc3ccc(NC(=O)C4CC4)cc3)n2)n[nH]1 [Tozasertib] (partner 0.1 µM)
Procedure, shortened: (§1)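 Cells from lung cancer lines were seeded into 1536-well plates and, one day later, dosed by pin tool. Treatments were either a single drug or a fixed dose of an anchor drug with five library-drug doses (not always all listed) in √10 steps. After 5 days, nuclei were stained in a one-step fixation (final 0.05% Triton X-100, 1% formaldehyde, 1 ug/ml Hoechst) and counted on 4× images, and relative viability is the treated-to-vehicle nuclei ratio, as the median of duplicate plates.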

VE-821 + Olaparib = compound: CS(=O)(=O)c1ccc(-c2cnc(N)c(C(=O)Nc3ccccc3)n2)cc1 [VE-821] + O=C(c1cc(Cc2n[nH]c(=O)c3ccccc23)ccc1F)N1CCN(C(=O)C2CC2)CC1 [Olaparib] (partner 8 µM)
Procedure, shortened: as §1

Vismodegib + Linsitinib = compound: CS(=O)(=O)c1ccc(C(=O)Nc2ccc(Cl)c(-c3ccccn3)c2)c(Cl)c1 [Vismodegib] + C[C@]1(O)C[C@@H](c2nc(-c3ccc4ccc(-c5ccccc5)nc4c3)c3c(N)nccn32)C1 [Linsitinib] (partner 1 µM)
Procedure, shortened: as §1

Vismodegib + Phenformin = compound: CS(=O)(=O)c1ccc(C(=O)Nc2ccc(Cl)c(-c3ccccn3)c2)c(Cl)c1 [Vismodegib] + N=C(N)NC(=N)NCCc1ccccc1 [Phenformin] (partner 250 µM)
Procedure, shortened: as §1

Cell Line | relative viability (VE-821 + Tozasertib; first compound 0.08 µM) | relative viability (VE-821 + Tozasertib; first compound 0.253 µM) | relative viability (VE-821 + Tozasertib; first compound 0.8 µM) | relative viability (VE-821 + Tozasertib; first compound 2.53 µM) | relative viability (VE-821 + Tozasertib; first compound 8 µM) | relative viability (VE-821 + Olaparib; first compound 0.08 µM) | relative viability (VE-821 + Olaparib; first compound 0.253 µM) | relative viability (VE-821 + Olaparib; first compound 0.8 µM) | relative viability (VE-821 + Olaparib; first compound 8 µM) | relative viability (Vismodegib + Linsitinib; first compound 0.08 µM) | relative viability (Vismodegib + Linsitinib; first compound 0.253 µM) | relative viability (Vismodegib + Linsitinib; first compound 0.8 µM) | relative viability (Vismodegib + Linsitinib; first compound 2.53 µM) | relative viability (Vismodegib + Linsitinib; first compound 8 µM) | relative viability (Vismodegib + Phenformin; first compound 0.08 µM) | relative viability (Vismodegib + Phenformin; first compound 0.253 µM) | relative viability (Vismodegib + Phenformin; first compound 0.8 µM) | relative viability (Vismodegib + Phenformin; first compound 2.53 µM) | relative viability (Vismodegib + Phenformin; first compound 8 µM) | relative viability (VE-821 + Olaparib; first compound 2.53 µM)
NCI-H2085 | 0.875 | 0.759 | 0.494 | 0.459 | 0.368 | 0.774 | 0.747 | 0.844 | 0.694 | 0.843 | 0.874 | 0.957 | 0.86 | 0.52 | 0.698 | 0.749 | 0.714 | 0.718 | 0.697 | 
NCI-H2228 | 0.312 | 0.2 | 0.212 | 0.256 | 0.156 | 0.506 | 0.625 | 0.641 | 0.222 | 0.972 | 0.855 | 0.835 | 0.467 | 0.763 | 0.387 | 0.452 | 0.301 | 0.296 | 0.314 | 0.534
EKVX | 0.45 | 0.346 | 0.352 | 0.39 | 0.309 | 0.863 | 0.837 | 0.813 | 0.736 | 0.949 | 1.04 | 0.929 | 0.894 | 0.989 | 0.225 | 0.227 | 0.24 | 0.224 | 0.233 | 0.783
COR-L23 | 0.195 | 0.168 | 0.131 | 0.142 | 0.14 | 0.372 | 0.346 | 0.221 | 0.182 | 0.934 | 0.812 | 0.972 | 0.859 | 1.1 | 0.441 | 0.423 | 0.43 | 0.453 | 0.493 | 0.304
SK-MES-1 | 0.968 | 0.818 | 0.828 | 0.561 | 0.325 | 0.885 | 0.747 | 0.638 | 0.243 | 1.04 | 1.07 | 1.08 | 0.973 | 1.07 | 0.625 | 0.647 | 0.669 | 0.635 | 0.631 | 0.531
A549 |  |  |  |  |  | 0.431 | 0.291 | 0.195 | 0.207 | 0.537 | 0.566 | 0.448 | 0.526 | 0.615 | 0.151 | 0.148 | 0.226 | 0.115 | 0.155 | 0.262
NCI-H650 | 0.744 | 0.744 | 0.643 | 0.765 | 0.707 | 0.44 | 0.432 | 0.422 | 0.439 | 0.868 | 0.799 | 0.679 | 0.994 | 0.949 | 0.469 | 0.417 | 0.45 | 0.418 | 0.393 | 0.482
NCI-H2087 | 0.241 | 0.204 | 0.248 | 0.212 | 0.198 | 0.784 | 0.64 | 0.67 | 0.462 | 1 | 0.916 | 0.97 | 0.934 | 0.896 | 0.45 | 0.445 | 0.427 | 0.45 | 0.399 | 0.583
